Laboratory results published in patent publication US9758485B2, “Compounds for controlling arthropods” (priority 2013, dated 2017).

Columns and labels:
Assay type in all cases: in vivo
Rhipicephalus sanguineus = Rhipicephalus sanguineus - in vitro contact tests with adult brown dog ticks; details: application rate 5 μg/cm^2, after 48 h (dead or moribund)
How it was run: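 Test compound was dissolved in acetone p.a. (9 mg in 1 ml, then diluted), and 250 μl were spread evenly over the inner surface of 25 ml test tubes on an orbital shaker at 30 rpm for 2 h. Once the solvent evaporated, 5-10 adult Rhipicephalus sanguineus ticks were sealed in, kept dark at room temperature, and after 48 h placed on a 45-50° C. hotplate to score dead or moribund ticks.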

Lucilia cuprina = Lucilia cuprina test; details: Lucilia cuprina, 48 h; application rate 100 ppm; L1 larvae in minced horsemeat; kill after 2 days; read-out: efficacy
How it was run: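 About 20 L1 larvae placed on minced horsemeat treated with compound, formulated in DMSO and diluted with water to test concentration. Kill in % scored after 2 days (100% = all larvae dead, 0% = none).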

Boophilus microplus = Boophilus microplus - injection test; details: Rhipicephalus microplus, 168 h; application rate 20 μg/animal; injected into engorged adult female ticks; laying of fertile eggs, after 7 days; read-out: efficacy
How it was run: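 Steps: dilute compound in DMSO to the desired concentration; inject 1 μl abdominally into 5 engorged adult females; keep in climate-controlled dishes; at 7 days score fertile egg laying, incubating doubtful eggs until hatch at about 42 days.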

Myzus persicae = Myzus persicae - spray test; details: application rate 100 g/ha; Chinese cabbage leaf discs; after 6 days
Description: Myzus persicae—Spray Test
Solvent: 78 parts by weight of acetone and 1.5 parts by weight of dimethylformamide
(§1) Emulsifier: alkylaryl polyglycol ether
(§2) To produce an appropriate active ingredient formulation, 1 part by weight of active ingredient is dissolved using the specified parts by weight of solvent and made up with water containing an emulsifier concentration of 1000 ppm until the desired concentration is attained. To produce further test concentrations, the preparation is diluted with emulsifier-containing water.
Discs of Chinese cabbage leaves (Brassica pekinensis) infested by all stages of the green peach aphid (Myzus persicae) are sprayed with an active ingredient formulation of the desired concentration.
After 6 days, efficacy in % is determined. 100% means that all the aphids have been killed; 0% means that none of the aphids have been killed.

Musca domestica = Musca domestica test; details: application rate 100 ppm; adult houseflies; kill after 2 days
How it was run: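 Compound in DMSO, diluted with water, applied to a sugar-solution sponge; vessels hold 10 adult houseflies. Percent mortality scored after 2 days.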

Ctenocephalides felis = Ctenocephalides felis - oral test; details: Ctenocephalides felis, po, 48 h; application rate 100 ppm in citrated cattle blood; adult fleas; kill after 2 days; read-out: efficacy
How it was run: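 About 20 unfed adult cat fleas fed through a parafilm membrane on citrated cattle blood containing compound, dosed from a DMSO stock. Kill in % scored after 2 days; 100% means all fleas dead.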

Tetranychus urticae = Tetranychus urticae - spray test, OP-resistant; details: foliar, 144 h, application rate 100 g/ha, bean leaf discs, after 6 days, read-out: efficacy
Description: Tetranychus urticae—Spray Test, OP-Resistant
(§3) Solvent: 78.0 parts by weight of acetone and 1.5 parts by weight of dimethylformamide
as §1, §2
Discs of bean leaves (Phaseolus vulgaris) infested by all stages of the greenhouse red spider mite (Tetranychus urticae) are sprayed with an active ingredient formulation of the desired concentration.
After 6 days, efficacy in % is determined. 100% means that all the spider mites have been killed; 0% means that none of the spider mites have been killed.

[1] = tested on: Boophilus microplus Parkhurst strain, SP-resistant; assay: Boophilus microplus - dip test; details: application rate 100 ppm; dip of engorged adult female ticks; laying of fertile eggs, after 7 days
How it was run: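 Adult engorged females of SP-resistant Parkhurst strain (8–10 per tube) fully immersed in compound diluted in water from a DMSO solution. Ticks then kept on filter discs in a climate-controlled room; efficacy scored from fertile egg laying at 7 days, with unclear eggs held about 42 days until hatch (100% = no fertile eggs).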

Amblyomma hebraeum = Amblyomma hebraeum test (tick nymphs, immersion); details: application rate 100 ppm; tick nymphs immersed for one minute; kill after 42 days
How it was run: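 Tick nymphs immersed for one minute in compound diluted in water from a DMSO concentrate, then held on filter paper in a Petri dish in a climate-controlled cabinet. Kill (%) scored after 42 days; 100% means all ticks dead, 0% none.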

Spodoptera frugiperda = Spodoptera frugiperda - spray test; details: foliar, 168 h, application rate 100 g/ha, caterpillars on maize leaf discs, after 7 days, read-out: efficacy
Description: Spodoptera frugiperda—Spray Test
as §3, §1, §2
Leaf discs of maize (Zea mays) are sprayed with an active ingredient formulation of the desired concentration and, after drying, populated with caterpillars of the armyworm (Spodoptera frugiperda).
After 7 days, efficacy in % is determined. 100% means that all the caterpillars have been killed; 0% means that no caterpillars have been killed.

Cc1cc(C(F)(C(F)(F)F)C(F)(F)F)cc(C)c1-n1cc(-c2ccc(Cl)c(C(=O)NC3CC3)c2)cn1 [I-T3-1, 2-chloro-N-cyclopropyl-5-[1-[2,6-dimethyl-4-[1,2,2,2-tetrafluoro-1-(trifluoromethyl)ethyl]phenyl]pyrazol-4-yl]benzamide]
100%: efficacy (Rhipicephalus sanguineus) | pest or weed control at 100 ppm (Lucilia cuprina) | pest or weed control at 0.02 mg (Boophilus microplus) | efficacy (Myzus persicae) | efficacy (Musca domestica) | pest or weed control at 100 ppm (Ctenocephalides felis) | pest or weed control at 100 g/ha (Tetranychus urticae) | efficacy [1] | efficacy (Amblyomma hebraeum) | pest or weed control at 100 g/ha (Spodoptera frugiperda)
